Our source for the IC50 values is patent US10259811B2, “Tank-binding kinase inhibitor compounds” (Gilead Sciences, Inc., priority 2014, dated 2019).

The target in one assay is IKKε (Homo sapiens (Human), UniProt Q14164). In words: TR-FRET enzymatic assay, phosphorylation of biotinylated serine/threonine peptide substrate (IKKε). The conditions noted are these: full length recombinant IKKε at 0.3 nM, 2×Km ATP (40-80 μM), 1 μM peptide, 240 minutes at 25° C.; geometric mean of minimum four determinations. It counts as biochemical. The source says:
Biological Assay for TBK1 and IKKε:

The target in a further assay is TBK1 (Homo sapiens (Human), UniProt Q9UHD2). In words: TR-FRET enzymatic assay, phosphorylation of biotinylated serine/threonine peptide substrate (TBK1). To be noted: read-out: TBK1-IC50; full length recombinant TBK1, 2×Km ATP (40-80 μM), 1 μM peptide, 240 minutes at 25° C.; geometric mean of minimum four determinations.
Chain of TBK1 (Q9UHD2 whole entry): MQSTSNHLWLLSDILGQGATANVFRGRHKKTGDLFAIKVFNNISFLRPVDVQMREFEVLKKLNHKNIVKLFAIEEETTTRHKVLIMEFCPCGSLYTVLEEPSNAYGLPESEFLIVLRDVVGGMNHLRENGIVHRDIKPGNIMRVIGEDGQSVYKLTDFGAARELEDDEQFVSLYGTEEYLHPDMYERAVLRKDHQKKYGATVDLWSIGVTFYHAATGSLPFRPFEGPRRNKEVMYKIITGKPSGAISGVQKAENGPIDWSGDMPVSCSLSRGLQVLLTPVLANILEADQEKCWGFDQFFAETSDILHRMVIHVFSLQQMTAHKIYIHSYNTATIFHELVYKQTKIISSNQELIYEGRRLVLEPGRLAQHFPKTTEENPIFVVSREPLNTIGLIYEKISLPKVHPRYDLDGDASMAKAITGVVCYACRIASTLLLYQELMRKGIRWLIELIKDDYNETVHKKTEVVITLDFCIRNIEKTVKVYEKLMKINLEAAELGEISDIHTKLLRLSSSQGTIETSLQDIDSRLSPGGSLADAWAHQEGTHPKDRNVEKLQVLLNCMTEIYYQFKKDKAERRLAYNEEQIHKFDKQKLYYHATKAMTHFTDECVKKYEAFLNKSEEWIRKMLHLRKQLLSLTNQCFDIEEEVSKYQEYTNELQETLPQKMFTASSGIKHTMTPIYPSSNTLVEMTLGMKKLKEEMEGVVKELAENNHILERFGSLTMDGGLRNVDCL

Chain of IKKε (Q14164 whole entry): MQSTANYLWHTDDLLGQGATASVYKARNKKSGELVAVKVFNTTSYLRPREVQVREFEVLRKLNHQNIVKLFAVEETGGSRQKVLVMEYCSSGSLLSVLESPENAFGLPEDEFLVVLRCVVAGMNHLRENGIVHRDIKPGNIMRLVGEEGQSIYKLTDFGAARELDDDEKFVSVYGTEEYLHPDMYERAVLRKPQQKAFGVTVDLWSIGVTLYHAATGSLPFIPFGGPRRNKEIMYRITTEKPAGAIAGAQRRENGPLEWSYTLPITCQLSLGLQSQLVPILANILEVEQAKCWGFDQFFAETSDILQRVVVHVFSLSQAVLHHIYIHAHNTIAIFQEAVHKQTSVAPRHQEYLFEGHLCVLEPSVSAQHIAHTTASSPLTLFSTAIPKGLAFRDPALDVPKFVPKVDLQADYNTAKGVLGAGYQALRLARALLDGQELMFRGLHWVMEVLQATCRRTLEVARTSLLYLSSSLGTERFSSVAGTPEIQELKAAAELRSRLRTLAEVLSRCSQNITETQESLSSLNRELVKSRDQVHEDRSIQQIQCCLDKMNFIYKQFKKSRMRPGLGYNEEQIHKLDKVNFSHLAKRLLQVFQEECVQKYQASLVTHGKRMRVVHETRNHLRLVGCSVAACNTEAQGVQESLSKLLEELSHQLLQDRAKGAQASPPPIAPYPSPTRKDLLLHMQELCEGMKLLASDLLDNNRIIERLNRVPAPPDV
Protocol for TBK1: Enzymatic activity of IKKε and TBK1 was measured using a homogeneous time resolved fluorescence resonance energy transfer (TR-FRET) assay that monitors enzyme dependent phosphorylation of a biotinylated serine/threonine peptide substrate. […] TBK1 and IKKε were expressed and purified as full length recombinant proteins. Detection reagents for the assay were purchased from Cisbio. […] After an assay reaction time of 240 minutes at 25° C., reactions were terminated with EDTA.
Amount of phosphorylated peptide was determined by the addition of 125 nM streptavidin XL665 and europium cryptate labeled anti-phospho monoclonal antibody and the resulting TR-FRET signal was recorded on an Envision plate reader (Ex: 340 nm; Em: 615/665 nm; 100 μs delay and 200 μs read window). […] All IC50 values represent geometric mean values of a minimum of four determinations.

On to “5-(6-(1,4-dioxaspiro[4.5]dec-7-en-8-yl)-7H-pyrrolo[2,3-d]pyrimidin-4-yl)-2-((1-(2-hydroxyacetyl)piperidin-4-yl)oxy)benzonitrile [Example 175]”, for which the IC50 at IKKε came out at 5.84 nM.

Take “5-(6-(4-(4-(2,2-difluoroethyl)piperazin-1-yl)phenyl)-7H-pyrrolo[2,3-d]pyrimidin-4-yl)-2-((1-(2-hydroxyacetyl)piperidin-4-yl)oxy)benzonitrile [Example 264]”: the IC50 on TBK1 worked out at 0.91 nM.

Turning to “5-(6-(4-(4-(2,2-difluoroethyl)piperazin-1-yl)phenyl)-7H-pyrrolo[2,3-d]pyrimidin-4-yl)-2-(piperidin-4-yloxy)benzonitrile [Example 265]”, the IC50 on IKKε was found to be 58.7 nM; on TBK1 it was 16.2 nM.

`Cc1nc(-c2ccc(OC3CCOCC3)c(C#N)c2)c2nc(-c3ccc(N4CCOCC4)cc3)[nH]c2n1` [Example 214, 5-(2-methyl-8-(4-morpholinophenyl)-9H-purin-6-yl)-2-((tetrahydro-2H-pyran-4-yl)oxy)benzonitrile]: the IC50 on IKKε and on TBK1 was more than 1000 nM throughout. Take `N#Cc1cc(-c2ncnc3[nH]c(-c4ccc(N5CCOCC5)c(F)c4)nc23)ccc1OC1CCN(C(=O)CO)CC1` [Example 241, 5-(8-(3-fluoro-4-morpholinophenyl)-9H-purin-6-yl)-2-((1-(2-hydroxyacetyl)piperidin-4-yl)oxy)benzonitrile]: the IC50 was found to be 1.3 nM at IKKε and 2.64 nM on TBK1.
